Experimental findings from BindingDB's records for doi:10.1021/jm990947f (University of Nottingham, 2000) are described below.

Usually IC50 stands for the concentration needed to halve the response being measured. Low values mean higher potency, high ones lower potency.

Test [1] can be described thus: Inhibition of IGF-I stimulated MCF-7 human breast tumor cell proliferation.
The nature of test [2]: Inhibition of IGF-II stimulated MCF-7 human breast tumor cell proliferation.

Consider `COc1cc(/C=C(\C#N)c2ccccn2)ccc1O`, for which the IC50 in test [1] was 2.9 µM; in test [2] it was 3.2 µM.
